Measured values from PMC9146377, “Design and Synthesis of Novel Bis-Imidazolyl Phenyl Butadiyne Derivatives as HCV NS5A Inhibitors” (Pharmaceuticals, 2022).
pEC50: −log10 of the molar value. Read-outs that look alike come from different tables or passages of the source.

Legend:
[1] = test system: NS5A protein expression, HCV Con1 (GT 1b); assay: Indirect immunofluorescence for NS5A in Huh5-2 replicon cells; type: cell-based, Hepatitis C virus; conditions: 10-fold serial dilutions, confocal microscopy
Protocol: The potency of compound 10a measured by the luciferase assay in HCV GT 1b was confirmed at the level of viral RNA and NS5A protein expression. Huh5-2 replicon cells were treated with 10a in serial dilutions, or its solvent DMSO (control), and viral RNA was quantified by reverse transcription-quantitative polymerase chain reaction (RT-qPCR). NS5A protein levels were evaluated by indirect immunofluorescence combined with confocal microscopy analysis. […] Nuclei were stained with propidium iodide (PI) as a cell viability control.
An indirect immunofluorescence analysis of Con1 NS5A was performed as described previously. Propidium iodide (Sigma-Aldrich, St. Louis, MO, USA) was used to stain the DNA. Images were obtained with a Leica TCS-SP8 Confocal Microscope (Wetzlar, Germany).
Figure 6 Inhibition of HCV RNA and protein expression levels exerted by compound 10a in HCV Con1 (GT 1b) subgenomic replicon cell line. (A) RT-qPCR analysis of (+) strand HCV RNA levels in Huh5-2 replicon cells treated with 10-fold serial dilutions of compound 10a or the solvent DMSO. Values are expressed as a percentage of those obtained from cells treated with the solvent (control). The housekeeping gene YWHAZ (tyrosine 3-monooxygenase/tryptophan 5-monooxygenase activation protein zeta) was used as a normalization control. […]

[2] = Cytotoxicity assay (intracellular ATP levels) in Huh5-2 replicon cells; type: cell-based; conditions: human, Huh5-2 cells, read-out: HCV Replicon 1b CC50
Protocol: (§1) All synthesized compounds were tested against HCV genotype 1b Con-1 subgenomic replicon in the Huh-5-2 stable cell line. Specifically, their activity against viral replication was estimated by measuring firefly luciferase, which is co-expressed by the bicistronic replicon, and their half-maximal effective concentrations (EC50) were determined. In parallel, the half-maximal cytotoxic concentrations (CC50) of the compounds were estimated, and their selective indexes (SI50: CC50/ EC50) were calculated. All novel synthesized compounds were active against HCV 1b with EC50 < 1 µM except for compound 4b (Table 3).
Intracellular ATP levels were measured to determine the cytotoxicity of the compounds in the treated cells. In 96-well plates, 10^4 cells per well were seeded, incubated with serial dilutions of the compounds or DMSO as a control for 72 h at 37 °C (5% CO2) and lysed for ATP measurement. ATP levels were measured using the ViaLight HS BioAssay kit (Lonza, Basel, Switzerland) in a GloMax 20/20 single-tube luminometer (Promega) for 1 s, according to the manufacturer’s protocol. Values were normalized to total protein amounts and used to determine the compound concentration causing 50% cell death (CC50). Nonlinear regression analysis was performed using Prism 5.0 software (GraphPad Software Inc., San Diego, CA, USA).

[3] = test system: HCV genotype 1b Con-1 subgenomic replicon; assay: Anti-HCV luciferase assay, genotype 1b (Con1) subgenomic replicon in Huh5-2 cells; type: cell-based, Hepatitis C virus; conditions: mean of three experiments
Protocol: as §1
Huh5-2 [65] and Huh7-JFH1 [66] stable cell lines harbor the subgenomic HCV reporter replicon I389luc-ubi-neo/NS3-3′/Con1/5.1 (genotype 1b; strain Con1) and I389luc-ubi-neo/NS3-3′_dg_JFH1 (genotype 2a, JFH1 strain), respectively (kindly provided by R. Bartenschlager, Heidelberg University, Heidelberg, Germany). Huh7.5-3a and Huh7.5-4a stable cell lines harbor the subgenomic HCV reporter replicon S52-SG (Feo) (AII) (genotype 3a; S52 strain) and ED43-SG (Feo) (VYG) (genotype 4a; ED43 strain), respectively (viral constructs kindly provided by C.M. Rice, Rockefeller University, New York, NY, USA). These replicons carry as a first cistron firefly luciferase (F-Luc) and neomycin phosphotransferase genes under the translational control of the HCV internal ribosome entry site (IRES), followed by HCV NS3 to NS5B proteins under the control of the EMCV IRES.
The anti-HCV assay in replicon cells was performed by seeding 1 × 10^4 cells per well in a 96-well plate. After 24 h of incubation at 37 °C (5% CO2) and medium removal, serial dilutions of the test compounds in complete DMEM were added. Cells were lysed after 72 h, and F-Luc activity was measured. The anti-HCV assay for the full-length viral construct H77S.3/GLuc2A was performed after electroporation of Huh7-Lunet cells with viral RNA. Cells were seeded in 96-well plates, the medium was removed 24 h after electroporation, and serial dilutions of the compounds in complete DMEM were added. At 72 h post-treatment, cell supernatants were collected, and G-Luc activity was measured. In addition, the cells were lysed for total protein quantification.
Relative luminescence units (RLU) were expressed as a percentage of the respective units derived from DMSO-treated cells (control). The half-maximal effective concentration (EC50), defined as the concentration of compound that reduces luciferase signal by 50%, was calculated by dose-response curve analysis using Prism 5.0 software (GraphPad Software Inc., San Diego, CA, USA).
(§2) The F-Luc activity was measured using the Luciferase Assay System (Promega, Madison, WI, USA), as recommended by the manufacturer. The G-Luc activity was measured using 12 μM coelenterazine (Promega) in assay buffer (50 mM potassium phosphate, pH 7.4, 500 mM NaCl, 1 mM EDTA). Measurements were carried out using a GloMax 20/20 single tube luminometer (Promega) for 10 s. The F-Luc activity was normalized to the total protein amount determined using the Bradford assay reagent (Pierce, Waltham, MA, USA).

[4] = test system: subgenomic replicon of HCV GT 3a (strain S52); assay: Anti-HCV luciferase assay, genotype 3a replicon in Huh7.5-3a cells; type: cell-based; conditions: Hepatitis C virus, GT3A, read-out: Gt3a EC50
Protocol: (§3) Specifically, we determined the activity of 10a against viral replication by measuring luciferase activity in Huh7-JFH1, Huh7.5-3a, and Huh7.5-4a stable cell lines containing subgenomic replicons of HCV GT 2a (strain JFH1), GT 3a (strain S52) and GT 4a (strain ED43), respectively. In addition, the activity of 10a was determined in Huh7-Lunet cells electroporated with the in vitro transcribed full-length reporter viral RNA of HCV genotype 1a (strain H77S.3). […]
(§4) The anti-HCV assay in replicon cells was performed by seeding 1 × 10^4 cells per well in a 96-well plate. […] Cells were lysed after 72 h, and F-Luc activity was measured. […] At 72 h post-treatment, cell supernatants were collected, and G-Luc activity was measured. In addition, the cells were lysed for total protein quantification.
(§5) Relative luminescence units (RLU) were expressed as a percentage of the respective units derived from DMSO-treated cells (control). […]
as §2, with “Measurements were carried out using a GloMax 20/20 single tube luminometer (Promega) for 10 s.” left out

[5] = test system: subgenomic replicon of HCV GT 4a (strain ED43); assay: Anti-HCV luciferase assay, genotype 4a replicon in Huh7.5-4a cells; type: cell-based, Hepatitis C virus
Protocol: as §3, §4, §5
as §2, with “Measurements were carried out using a GloMax 20/20 single tube luminometer (Promega) for 10 s.” left out

In the case of `COC(=O)N[C@@H](C(=O)N1CCC[C@H]1c1ncc(-c2cccc(C#CC#Cc3cccc(-c4cnc([C@@H]5CCCN5C(=O)[C@H](NC(=O)OC)c5ccccc5)[nH]4)c3)c2)[nH]1)c1ccccc1` [Compound 10a, Dimethyl ((1R,1′R)-((2S,2′S)-((buta-1,3-diyne-1,4-diylbis(3,1-phenylene))bis(1H-imidazole-5,2-diyl))bis(pyrrolidine-2,1-diyl))bis(2-oxo-1-phenylethane-2,1-diyl))dicarbamate], the NS5A protein expression [1] was “reduction of NS5A expression”, the CC50 at 72 h [2] was over 100000 nM and the pEC50 ([3]; Hepatitis C virus, Huh-5-2, 72 h, read-out: HCV Replicon 1b EC50, Huh5-2 cells, Con1 strain, F-Luc, 72 h) was 10.00. For the same compound, the pEC50 ([3]; Huh5-2 cells, Con1 strain, F-Luc, 72 h, read-out: HCV Replicon 1b EC50) was 10.00, the pEC50 [4] was 6.89 and the “Gt4a SI” value ([5]; ED43 replicon) was over 1537.52. The pEC50 ([5]; Hepatitis C virus, GT4A, read-out: Gt4a EC50) was 7.19.
